How the values were obtained:
Test in all cases: CelltiterGlo viability cell assay
Assay type in all cases: cell-based
HCC1806 = details: up to 30 μM; days 3 and 6; Prdm9 expressing line
Description: (§1) Supplementary Figure 13. […] Viability of
(§2) (a) Multiple Myeloma lines and (b) Breast Cancer cell lines following 3 or 6 days treatment with […]
(§3) manufacturer’s instructions as described in the Supplementary methods. Data are normalized to DMSO control. N=3 biological replicates, +/- SEM. Source data are provided as a Source Data […]
(§4) CelltiterGlo viability cell assay
(§5) Cells were seeded in 96 well plates at per-well densities of 10000 (MDA-MB436, ATCC-HTB130), 15000 (8226, kind gift from Rodger Tiedemann, Princess Margaret Cancer Centre), […]
(§6) kind gift from Rodger Tiedemann, Princess Margaret Cancer Centre) and 50000 (CAL851, kind gift from Mathieu Lupien, Princess Margaret Cancer Centre) and were treated at increasing concentrations of compounds ranging from 0.01 μM to 30 μM and assessed for proliferation using CelltiterGlo (Promega) following manufacturer’s instructions, as readout on days 3 and 6 as indicated. All cell lines were mycoplasma negative, as determined by MycoAlert™ Mycoplasma Detection Kit(Lonza). […]

HCC1143 = details: up to 30 μM; days 3 and 6; matched control line
Description: as §1, §2, §3, §4, §5, §6

MDA-MB-436 = details: up to 30 μM; days 3 and 6; matched control line
Description: as §1, §2, §3, §4, §5, §6

Measured: Effect on proliferation (in words)

COc1cc(OC)cc(-c2noc(N3CCN(C)C4(CCN(c5ccccc5)CC4)C3)n2)c1 [MRK-740-NC]
did not have any significant effect: HCC1806 | HCC1143 | MDA-MB-436
